# Measured values as given in patent US9233983B2, “Substituted hetero-bicyclic compounds, compositions and medicinal applications thereof” (ADVINUS THERAPEUTICS LIMITED, priority 2012, dated 2016).
# Biological target: human Bruton's Tyrosine Kinase (Btk) (Homo sapiens (Human), UniProt Q06187)
# Assay: Recombinant Human Bruton's Tyrosine Kinase (Btk) Inhibition Assay (HTRF KinEASE-TK)
# Type: biochemical
# Conditions: 20 ng/ml rhBtk, 77 μM ATP (KM), 1 μM TK-Biotin substrate, 90 min; read-out: hBTK IC50
# human Bruton's Tyrosine Kinase (Btk), sequence (Q06187 whole entry): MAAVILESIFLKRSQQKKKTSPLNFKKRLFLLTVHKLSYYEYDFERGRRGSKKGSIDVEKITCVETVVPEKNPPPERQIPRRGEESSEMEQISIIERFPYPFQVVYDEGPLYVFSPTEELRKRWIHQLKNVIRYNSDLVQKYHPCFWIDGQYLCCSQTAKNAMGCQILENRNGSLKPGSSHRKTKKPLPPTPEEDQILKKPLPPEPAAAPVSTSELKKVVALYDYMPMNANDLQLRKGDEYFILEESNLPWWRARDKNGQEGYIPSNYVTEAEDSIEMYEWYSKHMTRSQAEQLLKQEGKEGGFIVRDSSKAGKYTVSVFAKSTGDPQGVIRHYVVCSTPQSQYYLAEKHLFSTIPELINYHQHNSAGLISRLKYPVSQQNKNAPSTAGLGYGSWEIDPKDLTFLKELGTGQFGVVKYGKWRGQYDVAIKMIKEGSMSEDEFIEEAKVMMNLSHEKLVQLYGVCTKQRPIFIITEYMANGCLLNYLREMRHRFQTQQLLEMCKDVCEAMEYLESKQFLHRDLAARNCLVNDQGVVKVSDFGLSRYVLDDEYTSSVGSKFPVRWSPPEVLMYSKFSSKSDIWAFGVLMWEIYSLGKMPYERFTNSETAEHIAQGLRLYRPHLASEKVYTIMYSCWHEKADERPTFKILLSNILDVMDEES
row,Compound,IC50
1,"Cc1c(-c2ncnc3[nH]c(-c4cccc(CN5CCNCC5)c4)cc23)cccc1N1CCc2cc(C3CC3)ccc2C1=O [Example A-3, 6-cyclopropyl-2-[2-methyl-3-[6-[3-(piperazin-1-ylmethyl)phenyl]-7H-pyrrolo[2,3-d]pyrimidin-4-yl]phenyl]-3,4-dihydroisoquinolin-1-one]",515 nM
2,"Cc1c(-c2ncnc3[nH]c(-c4cccc(CN5CCNCC5)c4)cc23)cccc1N1CCOc2cc(C3CC3)ccc2C1=O [Example A-4, 8-cyclopropyl-4-[2-methyl-3-[6-[3-(piperazin-l-ylmethyl)phenyl]-7H-pyrrolo[2,3-d]pyrimidin-4-yl]phenyl]-2.3-dihydro-l,4-benzoxazepin-5-one]",396 nM
3,"Cc1c(-c2ncnc3[nH]c(-c4ccc(CN5CCOCC5)cc4)cc23)cccc1N1CCOc2cc(C3CC3)ccc2C1=O [Example A-5, 8-cyclopropyl-4-[2-methyl-3-[6-[4-(morpholinomethyl)phenyl]-7H-pyrrolo[2,3-d]pyrimidin-4-yl]phenyl]-2,3-dihydro-1,4-benzoxazepin-5-one]",92 nM
4,"Cc1c(-c2ncnc3[nH]c(-c4ccc(CN5CCOCC5)cc4)cc23)cccc1N1CCc2cc(C3CC3)ccc2C1=O [Example A-6, 6-cyclopropyl-2-[2-methyl-3-[6-[4-(morpholinomethyl)phenyl]-7H-pyrrolo[2,3-d]pyrimidin-4-yl]phenyl]-3,4-dihydroisoquinolin-1-one]",143 nM
5,"Cc1c(-c2ncnc3[nH]c(-c4cccc(CN5CCOCC5)c4)cc23)cccc1N1CCOc2cc(C3CC3)ccc2C1=O [Example A-7, 8-cyclopropyl-4-[2-methyl-3-[6-[3-(morpholinomethyl)phenyl]-7H-pyrrolo[2,3-d]pyrimidin-4-yl]phenyl]-2,3-dihydro-1,4-benzoxazepin-5-one]",415 nM
6,"Cc1c(-c2ncnc3[nH]c(-c4cccc(CN5CCOCC5)c4)cc23)cccc1N1CCc2cc(C3CC3)ccc2C1=O [Example A-8, 6-cyclopropyl-2-[2-methyl-3-[6-[3-(morpholinomethyl)phenyl]-7H-pyrrolo[2,3-d]pyrimidin-4-yl]phenyl]-3,4-dihydroisoquinolin-1-one]",825 nM
7,"Cc1c(-c2ncnc3[nH]c(-c4ccc(CN5CCN(C)CC5)cc4)cc23)cccc1N1CCc2cc(C3CC3)ccc2C1=O [Example B-3, 6-cyclopropyl-2-[2-methyl-3-[6-[4-[(4-methylpiperazin-1-yl)methyl]phenyl]-7H-pyrrolo[2,3-d]pyrimidin-4-yl]phenyl]-3,4-dihydroisoquinolin-1-one]",30 nM
8,"CCN1CCN(Cc2ccc(-c3cc4c(-c5cccc(N6CCc7cc(C8CC8)ccc7C6=O)c5C)ncnc4[nH]3)cc2)CC1 [Example B-4, 6-cyclopropyl-2-[3-[6-[4-[(4-ethylpiperazin-1-yl)methyl]phenyl]-7H-pyrrolo[2,3-d]pyrimidin-4-yl]-2-methyl-phenyl]-3,4-dihydroisoquinolin-1-one]",41 nM
9,"CN1CCN(Cc2ccc(-c3cc4c(-c5cccc(-n6ccc7cc(C8CC8)ccc7c6=O)c5CO)ncnc4[nH]3)cc2)CC1 [Example B-8, 6-cyclopropyl-2-[2-(hydroxymethyl)-3-[6-[4-[(4-methylpiperazin-1-yl)methyl]phenyl]-7H-pyrrolo[2,3-d]pyrimidin-4-yl]phenyl]isoquinolin-1-one]",7 nM
10,"Cc1c(-c2ncnc3[nH]c(-c4ccc(CN5CCN(C)CC5)cc4)cc23)cccc1-n1ccc2cc(C3CC3)ccc2c1=O [Example B-9, 6-cyclopropyl-2-[2-methyl-3-[6-[4-[(4-methylpiperazin-l-yl)methyl]phenyl]-7H-pyrrolo[2,3-d]pyrimidin-4-yl]phenyl]isoquinolin-1-one]",10 nM
11,"Cc1c(-c2ncnc3[nH]c(-c4ccc(CN5CCNC(=O)C5)cc4)cc23)cccc1N1CCc2cc(C3CC3)ccc2C1=O [Example B-11, 6-cyclopropyl-2-[2-methyl-3-[6-[4-[(3-oxopiperazin-1-yl)methyl]phenyl]-7H-pyrrolo[2,3-d]pyrimidin-4-yl]phenyl]-3,4-dihydroisoquinolin-1-one]",254 nM
12,"Cc1c(-c2ncnc3[nH]c(-c4ccc(CN5CCC(C)(O)CC5)cc4)cc23)cccc1N1CCc2cc(C3CC3)ccc2C1=O [Example B-12, 6-cyclopropyl-2-[3-[6-[4-[(4-hydroxy-4-methyl-1-piperidyl)methyl]phenyl]-7H-pyrrolo[2,3-d]pyrimidin-4-yl]-2-rnethyl-phenyl]-3,4-dihydroisoquinolin-1-one]",115 nM
13,"Cc1c(-c2ccnc3[nH]c(-c4ccc(CN5CCN(C)CC5)cc4)cc23)cccc1N1CCOc2cc(C3CC3)ccc2C1=O [Example B-15, 8-cyclopropyl-4-[2-methyl-3-[2-[4-[(4-methylpiperazin-1-yl)methyl]phenyl]-1H-pyrrolo[2,3-b]pyridin-4-yl]phenyl]-2,3-dihydro-1,4-benzoxazepin-5-one]",103 nM
14,"CN1CCN(Cc2ccc(-c3cc4c(-c5cccc(N6CCOc7cc(C8CC8)ccc7C6=O)c5CO)ccnc4[nH]3)c(F)c2)CC1 [Example B-18, 8-cyclopropyl-4-[3-[2-[2-fluoro-4-[(4-methylpiperazin-1-yl)methyl]phenyl]-1H-pyrrolo[2,3-b]pyridin-4-yl]-2-(hydroxymethyl)phenyl]-2,3-dihydro-1,4-benzoxazepin-5-one]",9 nM
15,"Cc1c(-c2ccnc3[nH]c(-c4ccc(CN5CCN(C)CC5)c(F)c4)cc23)cccc1N1CCOc2cc(C3CC3)ccc2C1=O [Example B-19, 8-cyclopropyl-4-[3-[2-[3-fluoro-4-[(4-methylpiperazin-1-yl)methyl]phenyl]-lH-pyrrolo[2,3-b]pyridin-4-yl]-2-methyl-phenyl]-2,3-dihydro-1,4-benzoxazepin-5-one]",190 nM
16,"CCN1CCN(Cc2ccc(-c3cc4c(-c5cccc(N6CCOc7cc(C8CC8)ccc7C6=O)c5CO)ccnc4[nH]3)cn2)CC1 [Example B-21, 8-cyclopropyl-4-[3-[2-[6-[(4-ethylpiperazin-1-yl)methyl]-3-pyridyl]-1H-pyrrolo[2,3-b]pyridin-4-yl]-2-(hydroxymethyl)phenyl]-2,3-dihydro-1,4-benzoxazepin-5-one]",8 nM
17,"CN1CC=C(c2ccc(-c3cc4c(-c5cccc(N6CCOc7cc(C8CC8)ccc7C6=O)c5CO)ccnc4[nH]3)cc2)CC1 [Example C-4, 8-cyclopropyl-4-[2-(hydroxymethyl)-3-[2-[4-(1-methyl-3,6-dihydro-2H-pyridin-4-yl)phenyl]-1H-pyrrolo[2,3-b]pyridin-4-yl]phenyl]-2,3-dihydro-1,4-benzoxazepin-5-one]",11 nM
18,"Cc1c(-c2ncnc3[nH]c(-c4cnn(C5CCN(C)CC5)c4)cc23)cccc1N1CCOc2cc(C3CC3)ccc2C1=O [Example D-2, 8-cyclopropyl-4-[2-methyl-3-[6-[1-(1-methyl-4-piperidyl)pyrazol-4-yl]-7H-pyrrolo[2,3-d]pyrimidin-4-yl]phenyl]-2,3-dihydro-1,4-benzoxazepin-5-one]",13 nM

# The next lines start with the values.
row,IC50,Compound
1,9 nM,"Cc1nn(C2CN(C)C2)cc1-c1cc2c(-c3cccc(N4CCOc5cc(C6CC6)ccc5C4=O)c3CO)ccnc2[nH]1 [Example E-1, 8-cyclopropyl-4-[2-(hydroxymethyl)-3-[2-[3-methyl-1-(1-methylazetidin-3-yl)pyrazol-4-yl]-1H-pyrrolo[2,3-b]pyridin-4-yl]phenyl]-2,3-dihydro-1,4-benzoxazepin-5-one]"
2,43 nM,"O=C1c2ccc(C3CC3)cc2OCCN1c1cccc(-c2ccnc3[nH]c(-c4cnn(C5CCOCC5)c4)cc23)c1CO [Example F-2, 8-cyclopropyl-4-[2-(hydroxymethyl)-3-[2-(1-tetrahydropyran-4-ylpyrazol-4-yl)-1H-pyrrolo[2,3-b]pyridin-4-yl]phenyl]-2,3-dihydro-1,4-benzoxazepin-5-one]"
3,13 nM,"Cc1c(-c2ncnc3[nH]c(-c4ccc(C5CCN(CCO)CC5)cc4)cc23)cccc1-n1ccc2cc(C3CC3)ccc2c1=O [Example H-1, 6-cyclopropyl-2-[3-[6-[4-[1-(2-hydroxyethyl)-4-piperidyl]phenyl]-7H-pyrrolo[2,3-d]pyrimidin-4-yl]-2-methyl-phenyl]isoquinolin-1-one]"
4,35 nM,"CN1CCN(Cc2ccc(-c3cc4c(-c5cccc(N6CCOc7cc(C8CC8)cnc7C6=O)c5CO)ccnc4[nH]3)nc2)CC1 [Example I-3, 8-cyclopropyl-4-[2-(hydroxymethyl)-3-[2-[5-[(4-methylpiperazin-1-yl)methyl]-2-pyridyl]-1H-pyrrolo[2,3-b]pyridin-4-yl]phenyl]-2,3-dihydropyrido[2,3-f][1,4]oxazepin-5-one]"
5,> 1000 nM,"CN(C)C(=O)N1CCN(Cc2ccc(-c3cc4c(-c5cccc(N6CCOc7cc(C8CC8)ccc7C6=O)c5CO)ccnc4[nH]3)nc2)CC1 [Example I-11, 4-[[6-[4-[3-(8-cyclopropyl-5-oxo-2,3-dihydro-1,4-benzoxazepin-4-yl)-2-(hydroxymethyl)phenyl]-1H-pyrrolo[2,3-b]pyridin-2-yl]-3-pyridyl]methyl]-N,N-dimethyl-piperazine-1-carboxamide]"
6,1.3 nM,"O=C1c2c(F)cc(C3CC3)cc2OCCN1c1cc(F)cc(-c2ccnc3[nH]c(-c4ccc(CN5CCN(C6COC6)CC5)cn4)cc23)c1CO [Example I-17, 8-cyclopropyl-6-fluoro-4-[5-fluoro-2-(hydroxymethyl)-3-[2-[5-[[4-(oxetan-3-yl)piperazin-1-yl]methyl]-2-pyridyl]-1H-pyrrolo[2,3-b]pyridin-4-yl]phenyl]-2,3-dihydro-1,4-benzoxazepin-5-one]"
7,42 nM,"Cc1c(-c2ncnc3[nH]c(-c4ccc(C(=O)N5CCCC(O)C5)cc4)cc23)cccc1N1CCOc2cc(C3CC3)ccc2C1=O (centres unmarked) [Example K-3, 8-cyclopropyl-4-[3-[6-[4-(3-hydroxypiperidine-1-carbonyl)phenyl]-7H-pyrrolo[2,3-d]pyrimidin-4-yl]-2-methyl-phenyl]-2,3-dihydro-1,4-benzoxazepin-5-one]"
8,171 nM,"Cc1c(-c2ncnc3[nH]c(-c4ccc(C(=O)N5CCCCC5)cc4)cc23)cccc1N1CCOc2cc(C3CC3)ccc2C1=O [Example K-5, 8-cyclopropyl-4-[2-methyl-3-[6-[4-(piperidine-1-carbonyl)phenyl]-7H-pyrrolo[2,3-d]pyrimidin-4-yl]phenyl]-2,3-dihydro-1,4-benzoxazepin-5-one]"
